According to patent US9670189B2, “Substituted condensed pyrimidine compounds” (GRÜNENTHAL GMBH, priority 2013, dated 2017):

molecular target: T1, human PDE4B1 (Homo sapiens, UniProt Q07343); assay: cAMP HTRF assay to determine the activity of hPDE4B1; assay type: biochemical; conditions: 1 μM test concentration; human recombinant PDE4B1, cAMP 40 nM; read-out: Inhibition at 1 μM test concentration [%] (Percentage inhibition of PDE4B)
T1 construct: host or cells: Sf9 cells
Experimental: cAMP HTRF® Assay to Determine the Activity of hPDE4B1
The inhibiting effect of the compounds on the enzyme activity of human PDE4B1 was measured by the quantification of 5′-adenosine monophosphate (5′-AMP), which is formed from 3′,5′-adenosine monophosphate (cAMP). Human recombinant enzyme, expressed in Sf9 cells, and the HTRF (homogeneous time-resolved fluorescence) detection method were used in the assay.
The test compound or water (control) was mixed with the human recombinant PDE4B1 enzyme (4.8 U) in a buffer consisting of 44.4 mM tris-HCl, 5.28 mM MgCl2, 2.64 mM DTT and 0.044% Tween 20 (pH 7.8). After adding the cAMP enzyme substrate (final concentration 40 nM) the mixture was incubated for 30 minutes at room temperature. Then a fluorescence acceptor (Dye2 marked with cAMP), a fluorescence donor (anti-cAMP antibody marked with a europium cryptate) and the non-specific phosphodiesterase inhibitor IBMX (3-isobutyl-1-methylxanthine; final concentration 1 mM) were added. After 60 minutes the fluorescence transfer, which correlates with the amount of remaining cAMP, was measured with a microplate reader (Rubystar, BMG) at λex=337 nm, λem=620 nm and λem=665 nm. The enzyme activity was calculated from the quotient formed from the measured signal at 665 nm and that at 620 nm. The result was expressed as the percentage inhibition of enzyme activity of the control (without PDE4 inhibitor) (literature: N. Saldou et al., Comparison of recombinant human PDE4 isoforms: interaction with substrate and inhibitors, Cell. Signal. Vol. 10, No. 6, 427-440, 1998). The enzyme was omitted for measurement of the basal control.

T1 sequence (Q07343 whole entry): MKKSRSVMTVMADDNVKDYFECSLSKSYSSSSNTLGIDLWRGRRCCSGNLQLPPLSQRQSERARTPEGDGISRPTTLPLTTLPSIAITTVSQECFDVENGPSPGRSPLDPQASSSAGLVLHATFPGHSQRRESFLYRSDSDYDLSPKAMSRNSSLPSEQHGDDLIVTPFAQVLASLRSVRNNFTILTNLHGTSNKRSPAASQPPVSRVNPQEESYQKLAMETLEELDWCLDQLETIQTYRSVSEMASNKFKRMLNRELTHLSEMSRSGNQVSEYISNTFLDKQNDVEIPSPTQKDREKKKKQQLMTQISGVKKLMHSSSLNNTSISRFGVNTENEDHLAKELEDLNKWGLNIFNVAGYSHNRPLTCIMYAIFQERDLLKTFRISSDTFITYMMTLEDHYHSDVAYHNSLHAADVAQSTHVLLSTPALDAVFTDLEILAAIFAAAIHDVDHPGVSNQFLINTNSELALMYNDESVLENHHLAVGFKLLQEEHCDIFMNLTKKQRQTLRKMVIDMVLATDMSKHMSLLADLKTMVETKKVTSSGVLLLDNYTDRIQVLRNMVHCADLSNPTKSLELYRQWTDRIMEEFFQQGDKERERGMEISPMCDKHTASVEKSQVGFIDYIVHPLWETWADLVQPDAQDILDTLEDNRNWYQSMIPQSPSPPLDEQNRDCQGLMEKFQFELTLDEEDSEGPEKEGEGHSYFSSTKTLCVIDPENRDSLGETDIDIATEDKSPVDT

Structure (SMILES)	inhibition at 1 µM [%]
O=C(O)Cc1ccc(Oc2nc(-c3ccc(O)c(Cl)c3)nc3c2CCC3)cc1 [Compound 13, 2-(4-(2-(3-Chloro-4-hydroxyphenyl)-6,7-dihydro-5H-cyclopenta[d]pyrimidin-4-yloxy)phenyl)acetic acid]	72
O=C(O)c1ccc(Oc2nc(-c3ccc(Cl)s3)nc3c2CCCC3)cc1 [Compound 11, 4-(2-(5-Chlorothiophen-2-yl)-5,6,7,8-tetrahydroquinazolin-4-yloxy)benzoic acid]	44
O=C(O)Cc1ccc(Oc2nc(-c3ccc(Br)cc3)nc3c2CCC3)cc1 [Compound 53, 2-(4-((2-(4-Bromophenyl)-6,7-dihydro-5H-cyclopenta[d]pyrimidin-4-yl)oxy)phenyl)acetic acid]	51
COc1ccc(-c2nc3c(c(Oc4ccc(C(=O)O)cc4)n2)CCC3)cc1F [Compound 4, 4-(2-(3-Fluoro-4-methoxyphenyl)-6,7-dihydro-5H-cyclopenta[d]pyrimidin-4-yloxy)benzoic acid]	62
O=C(O)Cc1ccc(Oc2nc(-c3ccc(F)c(F)c3)nc3c2CCC3)cc1 [Compound 3, 2-(4-(2-(3,4-Difluorophenyl)-6,7-dihydro-5H-cyclopenta[d]pyrimidin-4-yloxy)phenyl)acetic acid]	30
CSc1ccc(-c2nc3c(c(Oc4ccc(CC(=O)O)cc4)n2)CCC3)s1 [Compound 51, 2-(4-(2-(5-(Methylthio)thiophen-2-yl)-6,7-dihydro-5H-cyclopenta[d]pyrimidin-4-yloxy)phenyl)acetic acid]	84
O=C(O)Cc1ccc(Cc2nc(-c3ccc(Cl)s3)nc3c2CCC3)cc1 [Compound 9, 2-(4-((2-(5-Chlorothiophen-2-yl)-6,7-dihydro-5H-cyclopenta[d]pyrimidin-4-yl)methyl)phenyl)acetic acid]	75
O=C(O)Cc1ccc(Oc2nc(-c3ccc(F)s3)nc3c2CS(=O)(=O)C3)cc1 [Compound 15, 2-[4-[[2-(5-Fluoro-thiophen-2-yl)-6,6-dioxo-5,7-dihydro-thieno[3,4-d]pyrimidin-4-yl]oxy]-phenyl]-acetic acid]	86
O=C(O)Cc1ccc(Oc2nc(-c3ccc(Cl)s3)nc3c2CCCC3)cc1 [Compound 10, 2-(4-(2-(5-Chlorothiophen-2-yl)-5,6,7,8-tetrahydroquinazolin-4-yloxy)phenyl)acetic acid]	49
O=C(O)Cc1ccc(Oc2nc(-c3ccc(Cl)s3)nc3c2C[S+]([O-])C3)cc1 (centres unmarked) [Compound 20, 2-[4-[[2-(5-Chloro-thiophen-2-yl)-6-oxo-5,7-dihydro-thieno[3,4-d]pyrimidin-4-yl]oxy]-phenyl]-acetic acid]	103
Cc1sc(-c2nc3c(c(Oc4ccc(CC(=O)O)cc4)n2)CCC3)cc1Br [Compound 50, 2-(4-(2-(4-Bromo-5-methylthiophen-2-yl)-6,7-dihydro-5H-cyclopenta[d]pyrimidin-4-yloxy)phenyl)acetic acid]	47
O=C(O)Cc1ccc(Oc2nc(-c3ccc(Cl)s3)nc3c2CS(=O)(=O)CC3)cc1 [Compound 24, 2-[4-[[2-(5-Chloro-thiophen-2-yl)-6,6-dioxo-7,8-dihydro-5H-thiopyrano[4,3-d]pyrimidin-4-yl]oxy]-phenyl]-acetic acid]	33
COc1ccc(-c2nc3c(c(Oc4ccc(C(=O)O)cc4)n2)CCC3)cc1Cl [Compound 5, 4-(2-(3-Chloro-4-methoxyphenyl)-6,7-dihydro-5H-cyclopenta[d]pyrimidin-4-yloxy)benzoic acid]	71
N#Cc1ccc(-c2nc3c(c(Oc4ccc(CC(=O)O)cc4)n2)CCC3)s1 [Compound 48, 2-(4-(2-(5-Cyanothiophen-2-yl)-6,7-dihydro-5H-cyclopenta[d]pyrimidin-4-yloxy)phenyl)acetic acid]	78
O=C(O)Cc1ccc(Oc2nc(-c3cccc(Br)c3)nc3c2CCC3)cc1 [Compound 54, 2-(4-((2-(3-Bromophenyl)-6,7-dihydro-5H-cyclopenta[d]pyrimidin-4-yl)oxy)phenyl)acetic acid]	42
O=C(O)c1ccc(Oc2nc(-c3ccc(Cl)s3)nc3c2CCC3)cc1 [Compound 8, 4-(2-(5-Chlorothiophen-2-yl)-6,7-dihydro-5H-cyclopenta[d]pyrimidin-4-yloxy)benzoic acid]	84

Structure (SMILES)	inhibition at 1 µM [%]
O=C(O)Cc1ccc(Oc2nc(-c3ccc(Cl)s3)nc3c2CS(=O)(=O)C3)cc1 [Compound 21, 2-[4-[[2-(5-Chloro-thiophen-2-yl)-6,6-dioxo-5,7-dihydro-thieno[3,4-d]pyrimidin-4-yl]oxy]-phenyl]-acetic acid]	91
O=C(O)Cc1ccc(Oc2nc(-c3ccc(Cl)s3)nc3c2C[S+]([O-])CC3)cc1 (centres unmarked) [Compound 23, 2-[4-[[2-(5-Chloro-thiophen-2-yl)-6-oxo-7,8-dihydro-5H-thiopyrano[4,3-d]pyrimidin-4-yl]oxy]-phenyl]-acetic acid]	18
O=C(O)Cc1ccc(Oc2nc(-c3ccc(Cl)s3)nc3c2CC(F)(F)CC3)cc1 [Compound 12, 2-(4-(2-(5-Chlorothiophen-2-yl)-6,6-difluoro-5,6,7,8-tetrahydroquinazolin-4-yloxy)phenyl)acetic acid]	23
O=C(O)Cc1ccc(Oc2nc(-c3cncs3)nc3c2CCC3)cc1 [Compound 45, 2-(4-(2-(Thiazol-5-yl)-6,7-dihydro-5H-cyclopenta[d]pyrimidin-4-yloxy)phenyl)acetic acid]	55
COc1ccc(-c2nc3c(c(Oc4ccc(CC(=O)O)cc4)n2)CCC3)cc1Cl [Compound 2, 2-(4-(2-(3-Chloro-4-methoxyphenyl)-6,7-dihydro-5H-cyclopenta[d]pyrimidin-4-yloxy)phenyl)acetic acid]	75
O=C(O)Cc1ccc(Oc2nc(-c3ccc(Cl)s3)nc3c2CSCC3)cc1 [Compound 22, 2-(4-(2-(5-Chlorothiophen-2-yl)-7,8-dihydro-5H-thiopyrano[4,3-d]pyrimidin-4-yloxy)phenyl)acetic acid]	50
NC(=O)c1ccc(-c2nc3c(c(Oc4ccc(CC(=O)O)cc4)n2)CCC3)s1 [Compound 47, 2-(4-(2-(5-Carbamoylthiophen-2-yl)-6,7-dihydro-5H-cyclopenta[d]pyrimidin-4-yloxy)phenyl)acetic acid]	79
O=C(O)Cc1ccc(Oc2nc(-c3ccc(Cl)s3)nc3c2CSC3)cc1 [Compound 19, 2-(4-(2-(5-Chlorothiophen-2-yl)-5,7-dihydrothieno[3,4-d]pyrimidin-4-yloxy)phenyl)acetic acid]	98
O=C(O)Cc1ccc(Oc2nc(-c3ccc(Br)s3)nc3c2CCC3)cc1 [Compound 49, 2-(4-(2-(5-Bromothiophen-2-yl)-6,7-dihydro-5H-cyclopenta[d]pyrimidin-4-yloxy)phenyl)acetic acid]	59
CS(=O)(=O)c1ccc(-c2nc3c(c(Oc4ccc(CC(=O)O)cc4)n2)CCC3)s1 [Compound 52, 2-(4-(2-(5-(Methylsulfonyl)thiophen-2-yl)-6,7-dihydro-5H-cyclopenta[d]pyrimidin-4-yloxy)phenyl)acetic acid]	53
COc1ccc(-c2nc3c(c(Oc4ccc(CC(=O)O)cc4)n2)CS(=O)(=O)C3)cc1Cl [Compound 17, 2-[4-[[2-(3-Chloro-4-methoxy-phenyl)-6,6-dioxo-5,7-dihydro-thieno[3,4-d]pyrimidin-4-yl]oxy]-phenyl]-acetic acid]	95
O=C(O)Cc1ccc(Oc2nc(-c3cnc(Cl)s3)nc3c2CCC3)cc1 [Compound 46, 2-(4-(2-(2-Chlorothiazol-5-yl)-6,7-dihydro-5H-cyclopenta[d]pyrimidin-4-yloxy)phenyl)acetic acid]	76
Cc1ccc(-c2nc3c(c(Oc4ccc(CC(=O)O)cc4)n2)CCC3)s1 [Compound 58, 2-(4-((2-(5-Methylthiophen-2-yl)-6,7-dihydro-5H-cyclopenta[d]pyrimidin-4-yl)oxy)phenyl)acetic acid]	65
O=C(O)c1ccc(Oc2nc(-c3ccc(F)c(F)c3)nc3c2CCC3)cc1 [Compound 6, 4-(2-(3,4-Difluorophenyl)-6,7-dihydro-5H-cyclopenta[d]pyrimidin-4-yloxy)benzoic acid]	55
COc1ccc(-c2nc3c(c(Oc4ccc(CC(=O)O)cc4)n2)CS(=O)(=O)C3)cc1 [Compound 18, 2-[4-[[2-(4-Methoxyphenyl)-6,6-dioxo-5,7-dihydro-thieno[3,4-d]pyrimidin-4-yl]oxy]-phenyl]-acetic acid]	112
CC1Cc2nc(-c3ccc(Cl)s3)nc(Oc3ccc(CC(=O)O)cc3)c2C1 (centres unmarked) [Compound 59, 2-(4-((2-(5-Chlorothiophen-2-yl)-6-methyl-6,7-dihydro-5H-cyclopenta[d]pyrimidin-4-yl)oxy)phenyl)acetic acid]	62

same assay, conditions: measured according to the cAMP HTRF hPDE4B1 assay; read-out: PDE4B IC50

Structure (SMILES)	IC50 [nM]
O=C(O)Cc1ccc(Oc2nc(-c3ccc(F)s3)nc3c2CS(=O)(=O)C3)cc1 [Compound 15, 2-[4-[[2-(5-Fluoro-thiophen-2-yl)-6,6-dioxo-5,7-dihydro-thieno[3,4-d]pyrimidin-4-yl]oxy]-phenyl]-acetic acid]	< 100
O=C(O)Cc1ccc(Oc2nc(-c3ccc(Cl)s3)nc3c2C[S+]([O-])C3)cc1 (centres unmarked) [Compound 20, 2-[4-[[2-(5-Chloro-thiophen-2-yl)-6-oxo-5,7-dihydro-thieno[3,4-d]pyrimidin-4-yl]oxy]-phenyl]-acetic acid]	< 100
O=C(O)Cc1ccc(Oc2nc(-c3ccc(Cl)s3)nc3c2CS(=O)(=O)C3)cc1 [Compound 21, 2-[4-[[2-(5-Chloro-thiophen-2-yl)-6,6-dioxo-5,7-dihydro-thieno[3,4-d]pyrimidin-4-yl]oxy]-phenyl]-acetic acid]	< 100
O=C(O)Cc1ccc(Oc2nc(-c3ccc(Cl)s3)nc3c2CSC3)cc1 [Compound 19, 2-(4-(2-(5-Chlorothiophen-2-yl)-5,7-dihydrothieno[3,4-d]pyrimidin-4-yloxy)phenyl)acetic acid]	< 100
COc1ccc(-c2nc3c(c(Oc4ccc(CC(=O)O)cc4)n2)CS(=O)(=O)C3)cc1Cl [Compound 17, 2-[4-[[2-(3-Chloro-4-methoxy-phenyl)-6,6-dioxo-5,7-dihydro-thieno[3,4-d]pyrimidin-4-yl]oxy]-phenyl]-acetic acid]	< 100
COc1ccc(-c2nc3c(c(Oc4ccc(CC(=O)O)cc4)n2)CS(=O)(=O)C3)cc1 [Compound 18, 2-[4-[[2-(4-Methoxyphenyl)-6,6-dioxo-5,7-dihydro-thieno[3,4-d]pyrimidin-4-yl]oxy]-phenyl]-acetic acid]	< 100
